The source of these data is publication PMC7248897, “Synthesis, Biological Evaluation and In Silico Studies of Certain Oxindole–Indole Conjugates as Anticancer CDK Inhibitors” (Molecules, 2020).

“Also recorded” adds a separate entry of the source. Like-named read-outs stand apart in the source and are kept apart here. Some results are limits rather than exact numbers.

In one assay the target is T1, CDK2 (Homo sapiens, UniProt P24941).
T1 construct: purchased Reaction Biology Corp. (Kinase HotSpot service)
Nature of the assay: CDK2 kinase inhibition (Reaction Biology HotSpot). It counts as biochemical. To be noted: single dose of 20 µM; read-out: % Enzyme Inhibitory Activity CDK2. From the text: (§1) 5. CDK Kinase Inhibitory Activity
(§2) along with required cofactors.
(§3) Kinase activity data were
(§4) (dimethyl sulfoxide) reactions.

The target of the next assay is T2, CDK4 (Homo sapiens, UniProt P11802).
T2 construct: purchased Reaction Biology Corp. (Kinase HotSpot service)
T2 sequence (P11802 whole entry): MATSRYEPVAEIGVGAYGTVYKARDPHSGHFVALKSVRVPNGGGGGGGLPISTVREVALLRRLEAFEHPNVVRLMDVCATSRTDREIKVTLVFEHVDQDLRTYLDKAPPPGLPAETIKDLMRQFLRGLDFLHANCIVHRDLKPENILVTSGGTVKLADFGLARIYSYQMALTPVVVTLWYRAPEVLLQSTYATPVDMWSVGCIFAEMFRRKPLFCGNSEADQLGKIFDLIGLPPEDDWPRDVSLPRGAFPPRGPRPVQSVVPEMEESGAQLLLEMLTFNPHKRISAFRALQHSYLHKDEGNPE
T2 sequence (P24385 whole entry partner): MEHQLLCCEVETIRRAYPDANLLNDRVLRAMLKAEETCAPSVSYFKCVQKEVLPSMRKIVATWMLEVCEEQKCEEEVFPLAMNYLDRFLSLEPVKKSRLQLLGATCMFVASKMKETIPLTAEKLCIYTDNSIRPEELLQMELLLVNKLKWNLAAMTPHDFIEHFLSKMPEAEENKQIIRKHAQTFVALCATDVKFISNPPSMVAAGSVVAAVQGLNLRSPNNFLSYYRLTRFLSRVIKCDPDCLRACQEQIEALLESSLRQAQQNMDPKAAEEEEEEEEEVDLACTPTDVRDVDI
Nature of the assay: CDK4 kinase inhibition (Reaction Biology HotSpot). It counts as biochemical. To be noted: for inhibition at 20 µM: single dose of 20 µM.
Source text: as §1, §2, §3, §4

Assay [1] relates to MCF-7 breast cancer cell line. Nature of the assay: SRB anti-proliferative assay, MCF-7. It counts as cell-based, human. To be noted: for IC50: Homo sapiens, read-out: IC50 MCF-7. The protocol:
(§5) Cytotoxicity was assessed following the SRB colorimetric assay protocol, as reported earlier.
(§6) 1. Anti-proliferative action toward human breast cell lines […]
(§7) have been obtained from American Type Culture Collection (ATCC). The cells were maintained in Dulbecco's modified Eagle's medium (DMEM) supplemented with 10% heat inactivated fetal calf serum (GIBCO), penicillin (100 U/ml) and streptomycin (100 µg/ml) at 37 °C in humidified atmosphere containing 5% CO2. Cells at a concentration of […]
(§8) The anti-proliferative activity of the tested hybrids 6a-i, 9a-f and 11a, b was measured in vitro using the Sulfo-Rhodamine-B stain (SRB) assay. Briefly, Cells were inoculated in 96-well microtiter plate (5X104 cells/ well) for 24 h before treatment with the tested compounds to allow attachment of cell to the wall of the plate. Tested compounds were dissolved in DMSO at 1 mg/ml immediately before use and diluted to the appropriate volume just before addition to the cell culture. Different concentrations of tested compounds, doxorubicin and sorafenib were added to the cells (three wells were prepared for each individual dose). Cells were incubated with the compounds for 48 h at 37°C and in atmosphere of 5% CO2. After 48 h cells were fixed, washed, and stained for 30 min with 0.4% (w/v) SRB dissolved in 1% acetic acid. Unbound dye was removed by four washes with 1% acetic acid, and attached stain was recovered with Tris-EDTA buffer.
(§9) Color intensity was measured in an ELISA reader. […]

In the next assay the target is CDK9 (Homo sapiens, UniProt P50750). The experiment in a line: CDK9 kinase inhibition (Reaction Biology HotSpot). The conditions noted are these: read-out: % Enzyme Inhibitory Activity CDK9.
Sequence of CDK9 (P50750 whole entry): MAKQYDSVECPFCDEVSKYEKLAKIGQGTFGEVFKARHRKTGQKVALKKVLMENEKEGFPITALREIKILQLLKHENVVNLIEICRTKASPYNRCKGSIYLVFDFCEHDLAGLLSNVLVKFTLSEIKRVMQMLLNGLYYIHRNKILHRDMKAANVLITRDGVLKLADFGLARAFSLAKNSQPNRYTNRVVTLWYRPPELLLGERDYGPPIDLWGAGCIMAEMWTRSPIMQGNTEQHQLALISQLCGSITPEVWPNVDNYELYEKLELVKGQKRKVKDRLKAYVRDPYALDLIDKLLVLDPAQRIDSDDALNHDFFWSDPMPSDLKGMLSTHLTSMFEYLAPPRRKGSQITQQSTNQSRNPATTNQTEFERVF
Sequence of CDK9 (O60563 whole entry partner): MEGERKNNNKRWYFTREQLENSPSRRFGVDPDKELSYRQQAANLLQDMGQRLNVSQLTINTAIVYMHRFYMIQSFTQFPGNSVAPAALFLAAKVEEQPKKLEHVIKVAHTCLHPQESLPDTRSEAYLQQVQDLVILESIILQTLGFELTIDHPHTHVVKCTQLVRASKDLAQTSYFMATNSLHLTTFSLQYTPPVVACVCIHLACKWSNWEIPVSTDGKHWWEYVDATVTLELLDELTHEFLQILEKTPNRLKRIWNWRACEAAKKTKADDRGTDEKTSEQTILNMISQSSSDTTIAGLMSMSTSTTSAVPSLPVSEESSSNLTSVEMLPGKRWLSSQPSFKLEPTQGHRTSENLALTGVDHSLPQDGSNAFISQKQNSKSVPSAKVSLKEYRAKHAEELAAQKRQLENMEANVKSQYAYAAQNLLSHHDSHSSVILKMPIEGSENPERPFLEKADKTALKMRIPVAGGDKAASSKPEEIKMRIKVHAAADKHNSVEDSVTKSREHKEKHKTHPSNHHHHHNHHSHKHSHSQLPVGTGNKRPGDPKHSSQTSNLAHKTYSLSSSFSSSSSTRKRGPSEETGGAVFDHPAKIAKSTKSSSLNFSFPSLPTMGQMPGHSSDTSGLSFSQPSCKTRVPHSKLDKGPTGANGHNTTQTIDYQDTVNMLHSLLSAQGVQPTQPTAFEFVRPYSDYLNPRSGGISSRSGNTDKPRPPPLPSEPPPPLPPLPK
Assay [2] has as its system MDA-MB-231 breast cancer cell line. Nature of the assay: SRB anti-proliferative assay, MDA-MB-231. It counts as cell-based, human. The conditions noted are these: for IC50 / IC50 MDA-MB-231: mean ± S.D. from 3 separate experiments. The protocol: as §5, §6, §7, §8, §9
[3] abbreviates: MCF7, SRB assay, 48 h, mean ± S.D. from 3 separate experiments.
The mark [4] stands for this setting: Homo sapiens, MDA-MB-231, SRB assay, 48 h, read-out: IC50 MDA-MB-231.
Where [5] appears, read: Homo sapiens, MDA-MB-231, 48 h, read-out: IC50 MDA-MB-231, SRB assay, 48 h.
Setting [6] is: SRB assay, 48 h, mean ± S.D. from 3 separate experiments.

Method for CDK9: The in vitro CDK kinase inhibition assay was performed by Reaction Biology Corp. (PA, USA) (http://www.reactionbiology.com) Kinase HotSpotSM service.
Reaction Biology Corp. Kinase HotSpotSM service (http://www.reactionbiology.com)
was used for screening of tested compounds. CDK Kinase inhibitory activities were
assessed by the HotSpot assay platform, which contained specific kinase/substrate pairs
along with required cofactors. Base reaction buffer: 20 mM Hepes (pH 7.5), 10 mM MgCl2,
Testing compounds were dissolved in 100% DMSO to specific concentration. The serial
dilution was conducted by Integra Viaflo Assist in DMSO. The reaction mixture containing the examined compound and 33P-ATP was incubated at room temperature for
2 h and radioactivity was detected by filter-binding method. Kinase activity data were
expressed as the percent remaining kinase activity in test samples compared to vehicle

Take `O=C1Nc2ccc([N+](=O)[O-])cc2/C1=N/NC(=O)c1cc2ccccc2[nH]1` [6h]: the figures for the inhibition at 20 µM on CDK2, at CDK4 and on CDK9 were at least 50%, 46% and 10%, respectively. Moreover, the IC50 was 21.4 ± 1.58 µM in assay [1] (setting [3]) and 1.85 ± 0.07 µM in assay [2] (setting [4]). Besides, the “fold potency compared to staurosporine” value in assay [2] (MDA-MB-231, ratio of IC50 values) is 5.56 fold.

Regarding `O=C1Nc2ccc(OC(F)(F)F)cc2/C1=N/NC(=O)c1cc2ccccc2[nH]1` [6g], the results for the inhibition at 20 µM at CDK2, on CDK4 and on CDK9 were 14%, 19% and 4%, respectively. For the same compound, the IC50 came to 5.07 ± 0.21 µM in assay [1] (setting [3]) and 7.19 ± 0.38 µM in assay [2] (setting [4]).

Regarding `CCCN1C(=O)/C(=N\NC(=O)c2cc3ccccc3[nH]2)c2cc(Cl)ccc21` [9f], the IC50 in assay [1] (MCF7, 48 h) came to 19.3 ± 0.65 µM; in assay [2] (setting [5]), 9.44 ± 0.35 µM.

Consider `O=C(N/N=C1\CCCc2ccccc21)c1cc2ccccc2[nH]1` [11b], for which the IC50 in assay [1] (setting [3]) and in assay [2] (setting [4]) was over 100 µM in each case. The “IC50 MCF-7” value in assay [1] (setting [6]) is listed as “did not exert any significant anti-proliferative action”. In assay [2] (SRB assay, 48 h), the “IC50 MDA-MB-231” value is given as “no activity; also recorded: did not exert any significant anti-proliferative action”.

Consider `O=C(N/N=C1\C(=O)N(Cc2ccccc2)c2ccccc21)c1cc2ccccc2[nH]1` [9d], for which the half-maximal inhibitory concentration (IC50) in assay [1] (MCF7, 48 h) was 9.56 ± 0.61 µM; in assay [2] (setting [5]), 6.5 ± 0.39 µM.

In the case of `O=C1Nc2ccc(Br)cc2/C1=N/NC(=O)c1cc2ccccc2[nH]1` [6d], the values for the inhibition at 20 µM on CDK2, against CDK4 and at CDK9 were 85%, 43% and 32%, respectively. In addition, the IC50 in assay [1] (setting [3]) stood at 3.31 ± 0.11 µM; in assay [2] (setting [4]), 18.3 ± 0.71 µM.

`O=C1Nc2ccccc2/C1=N/NC(=O)c1cc2ccccc2[nH]1` [6a]: the figures for the inhibition at 20 µM at CDK2, at CDK4 and on CDK9 were 78%, 92% and 20%, respectively. Also, the IC50 against CDK4 stood at 1.82 µM; in assay [1] (setting [3]), 3.12 ± 0.14 µM; in assay [2] (setting [4]), 15.1 ± 0.73 µM.

On to `CCOC(=O)CN1C(=O)/C(=N\NC(=O)c2cc3ccccc3[nH]2)c2ccccc21` [9c], for which the IC50 in assay [1] (setting [3]) is 67.5 ± 3.02 µM; in assay [2] (setting [4]), over 100 µM. Besides, the “IC50 MDA-MB-231” value in assay [2] (SRB assay, 48 h) is “no anti-proliferative activity”.

On to `O=C1Nc2ccc(F)cc2/C1=N/NC(=O)c1cc2ccccc2[nH]1` [6b], for which the inhibition at 20 µM on CDK2 was 48%; against CDK4, 33%; at CDK9, 7%. The IC50 in assay [1] (setting [3]) came to 6 ± 0.32 µM; in assay [2] (setting [4]), 6.36 ± 0.29 µM.

Turning to `O=C1Nc2ccc(Cl)cc2/C1=N/NC(=O)c1cc2ccccc2[nH]1` [6c], the inhibition at 20 µM at CDK2 was at least 50%; on CDK4, 28%; on CDK9 it was 11%. The IC50 in assay [1] (setting [3]) came out at 2.72 ± 0.17 µM; in assay [2] (setting [4]), 9.48 ± 0.44 µM.

For `O=C(N/N=C1\C(=O)N(Cc2ccc(F)cc2)c2ccccc21)c1cc2ccccc2[nH]1` [9e], the values for the inhibition at 20 µM at CDK2, against CDK4 and at CDK9 were 5%, 12% and 9%, respectively. Besides, the concentration for half-maximal inhibition (IC50) was found to be 3.7 ± 0.19 µM in assay [1] (MCF7, 48 h) and 1.03 ± 0.04 µM in assay [2] (setting [5]).

On to `CCCN1C(=O)/C(=N\NC(=O)c2cc3ccccc3[nH]2)c2ccccc21` [9b], for which the 50% inhibitory concentration (IC50) in assay [1] (MCF7, 48 h) is 40.9 ± 3.17 µM; in assay [2] (setting [5]), 18.2 ± 0.85 µM; in assay [2] (read-out: IC50 MDA-MB-231, SRB assay, 48 h), 18.5 ± 0.85 µM.

For `CN1C(=O)/C(=N\NC(=O)c2cc3ccccc3[nH]2)c2ccccc21` [9a], the inhibition at 20 µM on CDK2 is 41%; against CDK4 it was 20%; at CDK9, 13%. Besides, the results for the IC50 in assay [1] (setting [3]) and in assay [2] (setting [4]) were 5.5 ± 0.28 µM and 8.39 ± 0.27 µM, respectively.

`O=C(NN=C1Cc2ccccc2C1)c1cc2ccccc2[nH]1` [11a]: the IC50 in assay [1] (setting [3]) is 84.7 ± 4.02 µM; in assay [2] (setting [4]), over 100 µM. Moreover, the “IC50 MCF-7” value in assay [1] (setting [6]) was “did not exert any significant anti-proliferative action”. Moreover, the “IC50 MDA-MB-231” value in assay [2] (SRB assay, 48 h) is “no activity; also recorded: did not exert any significant anti-proliferative action”.

Consider `CN[C@@H]1C[C@H]2O[C@@](C)([C@@H]1OC)n1c3ccccc3c3c4c(c5c6ccccc6n2c5c31)C(=O)NC4` [Staurosporine, reference compound], for which the inhibition at 20 µM on CDK9 is 98%.

For `Cc1cc(C)c2c(c1)/C(=N/NC(=O)c1cc3ccccc3[nH]1)C(=O)N2` [6i], the IC50 is 47.2 ± 3.02 µM in assay [1] (setting [3]) and over 100 µM in assay [2] (setting [4]). Further, the “IC50 MDA-MB-231” value in assay [2] (SRB assay, 48 h) is “no activity”.

Usually IC50 stands for the concentration that gives 50% inhibition.
